From article PMC5911580, “YL143, a novel mutant selective irreversible EGFR inhibitor, overcomes EGFR^L858R, T790M‐mutant resistance in vitro and in vivo” (Cancer Medicine, 2018)

Legend:
[1] = molecular target: T1, EGFR^WT (Homo sapiens, UniProt P00533); assay: FRET-based Z'-Lyte kinase assay, EGFR WT; format: biochemical; conditions: AV ± SD; 1.5 h incubation
T1 construct: purchased Invitrogen
Procedure: (§1) The kinase activity assay was performed and optimized according to the instructions of Z’‐LYTE™ kinase assay kits from the manufacturer (PV4879, Life, America). In our experiments, 10 concentration gradients from 0.01 nmol/L to 1.0 μmol/L were used for all the compounds.

[2] = molecular target: T2, EGFR^L858R (Homo sapiens, UniProt P00533, L858R); assay: FRET-based Z'-Lyte kinase assay, EGFR L858R; format: biochemical; conditions: AV ± SD; 1.5 h incubation
T2 construct: purchased Invitrogen
T2 sequence (P00533 25-1210 L858R): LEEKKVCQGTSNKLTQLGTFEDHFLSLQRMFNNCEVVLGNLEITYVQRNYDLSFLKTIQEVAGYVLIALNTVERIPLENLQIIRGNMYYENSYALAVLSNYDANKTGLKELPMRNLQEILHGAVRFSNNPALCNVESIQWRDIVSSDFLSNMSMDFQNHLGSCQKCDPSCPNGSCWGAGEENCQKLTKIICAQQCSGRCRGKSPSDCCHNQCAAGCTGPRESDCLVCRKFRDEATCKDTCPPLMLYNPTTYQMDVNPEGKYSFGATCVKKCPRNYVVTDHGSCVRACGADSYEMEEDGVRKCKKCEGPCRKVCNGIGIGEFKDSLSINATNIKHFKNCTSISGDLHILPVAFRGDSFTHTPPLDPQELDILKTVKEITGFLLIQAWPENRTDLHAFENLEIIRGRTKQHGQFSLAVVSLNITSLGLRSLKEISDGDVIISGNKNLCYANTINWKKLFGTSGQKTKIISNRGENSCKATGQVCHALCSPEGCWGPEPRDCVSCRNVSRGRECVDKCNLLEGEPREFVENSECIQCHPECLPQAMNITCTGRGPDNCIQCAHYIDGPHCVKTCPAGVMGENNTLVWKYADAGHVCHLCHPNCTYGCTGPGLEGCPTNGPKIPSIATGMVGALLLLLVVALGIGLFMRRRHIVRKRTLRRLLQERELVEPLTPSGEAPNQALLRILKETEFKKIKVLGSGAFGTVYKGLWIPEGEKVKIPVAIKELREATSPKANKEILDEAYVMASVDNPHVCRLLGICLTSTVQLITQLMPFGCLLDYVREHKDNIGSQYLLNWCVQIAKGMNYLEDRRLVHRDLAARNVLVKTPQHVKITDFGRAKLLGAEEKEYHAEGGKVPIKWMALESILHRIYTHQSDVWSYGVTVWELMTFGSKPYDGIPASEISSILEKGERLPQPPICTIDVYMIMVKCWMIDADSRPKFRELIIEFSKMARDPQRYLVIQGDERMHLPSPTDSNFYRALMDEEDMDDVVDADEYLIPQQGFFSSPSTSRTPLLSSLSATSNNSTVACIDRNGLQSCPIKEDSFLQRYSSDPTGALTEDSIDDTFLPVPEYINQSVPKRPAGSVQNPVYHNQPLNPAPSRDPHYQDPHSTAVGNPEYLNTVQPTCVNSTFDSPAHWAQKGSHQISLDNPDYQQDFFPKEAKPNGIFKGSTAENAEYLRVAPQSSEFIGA
Procedure: as §1

[3] = molecular target: T3, EGFR^Del 19 (Homo sapiens, UniProt P00533, DEL746-750); assay: FRET-based Z'-Lyte kinase assay, EGFR Del 19; format: biochemical; conditions: AV ± SD; 1.5 h incubation
T3 construct: purchased Invitrogen
Procedure: as §1

[4] = molecular target: T4, EGFR^T790M (Homo sapiens, UniProt P00533, T790M); assay: FRET-based Z'-Lyte kinase assay, EGFR T790M; format: biochemical; conditions: AV ± SD; 1.5 h incubation
T4 construct: purchased Invitrogen
T4 sequence (P00533 25-1210 T790M): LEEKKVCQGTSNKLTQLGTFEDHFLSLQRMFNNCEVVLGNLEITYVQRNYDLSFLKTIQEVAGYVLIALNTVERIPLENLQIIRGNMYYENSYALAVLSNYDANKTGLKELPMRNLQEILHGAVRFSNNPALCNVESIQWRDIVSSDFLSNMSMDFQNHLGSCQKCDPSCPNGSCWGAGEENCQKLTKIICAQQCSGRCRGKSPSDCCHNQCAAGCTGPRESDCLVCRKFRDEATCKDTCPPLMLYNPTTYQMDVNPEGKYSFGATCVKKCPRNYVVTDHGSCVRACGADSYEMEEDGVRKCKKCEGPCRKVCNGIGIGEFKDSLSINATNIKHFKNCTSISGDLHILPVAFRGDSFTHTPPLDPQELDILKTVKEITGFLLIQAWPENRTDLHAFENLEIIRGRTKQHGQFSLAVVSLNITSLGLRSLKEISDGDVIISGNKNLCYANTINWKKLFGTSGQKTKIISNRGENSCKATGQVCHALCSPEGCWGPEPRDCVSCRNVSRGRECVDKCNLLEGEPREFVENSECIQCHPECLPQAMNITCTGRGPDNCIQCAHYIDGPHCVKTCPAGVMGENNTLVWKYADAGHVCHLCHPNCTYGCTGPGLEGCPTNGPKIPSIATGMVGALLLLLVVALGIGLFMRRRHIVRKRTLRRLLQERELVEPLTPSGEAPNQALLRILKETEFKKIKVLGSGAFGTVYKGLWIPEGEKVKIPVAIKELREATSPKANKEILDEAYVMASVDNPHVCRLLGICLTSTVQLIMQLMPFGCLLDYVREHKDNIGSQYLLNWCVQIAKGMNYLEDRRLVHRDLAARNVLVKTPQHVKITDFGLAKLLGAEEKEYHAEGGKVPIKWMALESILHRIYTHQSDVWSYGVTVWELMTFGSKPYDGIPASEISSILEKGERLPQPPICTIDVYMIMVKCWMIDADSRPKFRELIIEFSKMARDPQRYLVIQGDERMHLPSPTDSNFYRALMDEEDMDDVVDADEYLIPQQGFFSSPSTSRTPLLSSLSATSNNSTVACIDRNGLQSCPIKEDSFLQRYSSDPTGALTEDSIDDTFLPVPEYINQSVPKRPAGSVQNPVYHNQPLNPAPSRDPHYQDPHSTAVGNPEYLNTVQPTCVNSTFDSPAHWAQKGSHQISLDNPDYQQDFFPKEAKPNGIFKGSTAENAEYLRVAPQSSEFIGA
Procedure: as §1

[5] = molecular target: AKT2 (Homo sapiens, UniProt P31751); assay: Z'-Lyte kinase panel, AKT2; format: biochemical; conditions: 1.5 hrs incubation
Procedure: (§2) Kinase activity assays were performed using the FRET-based Z′-Lyte assay according to the manufacturer’s instructions. The compounds were incubated with the kinase reaction mixture for 1.5 hrs before measurement. The data are means from two independent experiments and the variations are below 20%.

[6] = molecular target: Abl (Homo sapiens, UniProt P00519); assay: Z'-Lyte kinase panel, Abl; format: biochemical; conditions: 1.5 hrs incubation
Abl, sequence (P00519 whole entry, species assumed): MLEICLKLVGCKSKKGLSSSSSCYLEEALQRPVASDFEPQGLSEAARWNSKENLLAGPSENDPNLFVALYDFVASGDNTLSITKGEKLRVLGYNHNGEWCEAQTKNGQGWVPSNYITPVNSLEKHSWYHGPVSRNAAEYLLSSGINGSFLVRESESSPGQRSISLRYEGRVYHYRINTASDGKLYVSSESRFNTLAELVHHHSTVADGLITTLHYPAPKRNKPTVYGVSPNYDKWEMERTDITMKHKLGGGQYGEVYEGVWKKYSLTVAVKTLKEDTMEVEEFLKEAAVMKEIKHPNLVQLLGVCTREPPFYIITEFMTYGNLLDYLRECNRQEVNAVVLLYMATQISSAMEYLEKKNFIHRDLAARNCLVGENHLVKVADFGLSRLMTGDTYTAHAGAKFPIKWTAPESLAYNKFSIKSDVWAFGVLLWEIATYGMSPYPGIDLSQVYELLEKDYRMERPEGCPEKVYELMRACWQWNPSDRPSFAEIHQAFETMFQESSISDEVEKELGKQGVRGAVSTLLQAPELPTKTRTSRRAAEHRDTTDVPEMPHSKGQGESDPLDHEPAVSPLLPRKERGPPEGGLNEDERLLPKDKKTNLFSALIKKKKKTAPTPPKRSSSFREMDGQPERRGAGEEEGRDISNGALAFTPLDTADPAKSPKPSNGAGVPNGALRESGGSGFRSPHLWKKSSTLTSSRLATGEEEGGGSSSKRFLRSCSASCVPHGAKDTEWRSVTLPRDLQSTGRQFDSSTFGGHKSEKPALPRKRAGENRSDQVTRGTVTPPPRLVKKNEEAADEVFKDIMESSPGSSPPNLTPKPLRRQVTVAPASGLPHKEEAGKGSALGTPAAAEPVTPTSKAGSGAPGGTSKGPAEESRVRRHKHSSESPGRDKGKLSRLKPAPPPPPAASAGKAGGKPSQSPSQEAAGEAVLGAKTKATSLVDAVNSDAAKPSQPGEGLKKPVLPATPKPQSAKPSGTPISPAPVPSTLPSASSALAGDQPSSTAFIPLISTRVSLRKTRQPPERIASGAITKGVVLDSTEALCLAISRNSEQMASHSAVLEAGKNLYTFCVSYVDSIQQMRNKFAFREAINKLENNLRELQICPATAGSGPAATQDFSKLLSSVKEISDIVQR
Procedure: as §2

[7] = test system: H1975 cells; assay: Cell cycle analysis by flow cytometry (propidium iodide); format: cell-based, human
Procedure: The effect of YL143 to induce cell cycle arrest and apoptosis in H1975 cells was investigated by flow cytometry analysis. […] Treatment with 300 nmol/L of YL143 for 48 h led to 82.11% G0/G1 phase arrest and 34.1% apoptosis. […] (Fig. 3C).
Figure 3 YL143 induces G0/G1 cell cycle arrest and apoptosis in H1975 cells. (A) YL143 induces G0/G1 cell cycle arrest in H1975 cells H1975 cells were treated with 3, 30 or 300 nmol/L for 48 h before DNA labeling by propidium iodide and cell cycle analysis by flow cytometry. (B) YL143 induces apoptosis in H1975 cells. H1975 cells were treated with 3, 30 or 300 nmol/L for 48 h before DNA labeling by Annexin V and 7‐AAD and cell apoptosis analysis by flow cytometry. (C) The effect of YL143 on the expression of CDK4, Cyclin D2, CDK2, Cyclin E, Caspase‐9 and Caspase‐3 was tested by western blotting. The cells were treated with YL143 from 3 to 300 nmol/L for 48 h. Representative results are shown and similar results were obtained in three other independent trials. […]

[8] = Pharmacokinetic study in SD rats; format: in vivo, rat
Procedure: Sprague Dawley (SD) rats (180–220 g) were fasted overnight before drug administration. They could eat food and drink water freely during the study. Rats were grouped and treated with 25 and 5 mg/kg of YL143 in vehicle via oral gavage and i.v., respectively. Eyeground vein blood samples (0.20 mL) were collected from each animal at designed time point postdose (5, 30 min, 1, 2, 4, 8, 12, 24, 36, 48, 60, and 72 h.). Blood samples were centrifuged within 10 min at 900 g, and then, plasma was separated and stored at 4°C until analysis. Drug concentration was quantitatively detected using an API 300 mass spectrometer (Applied Biosystems, Canada) with TurboIonSpray source interface. Data acquisition and quantitation were performed using Analyst 1.4 (Applied Biosystems, Canada). All pharmacokinetic parameters were calculated by DAS 2.0 using a noncompartment model (Clinical drug research center of Shanghai University of Traditional Chinese Medicine, Shanghai, China).

[9] = Sprague-Dawley, rat, plasma, iv, I.V. 5 mg/Kg
[10] = Sprague-Dawley, rat, plasma, po, P.O. 25 mg/Kg

T1 sequence (P00533 25-1210): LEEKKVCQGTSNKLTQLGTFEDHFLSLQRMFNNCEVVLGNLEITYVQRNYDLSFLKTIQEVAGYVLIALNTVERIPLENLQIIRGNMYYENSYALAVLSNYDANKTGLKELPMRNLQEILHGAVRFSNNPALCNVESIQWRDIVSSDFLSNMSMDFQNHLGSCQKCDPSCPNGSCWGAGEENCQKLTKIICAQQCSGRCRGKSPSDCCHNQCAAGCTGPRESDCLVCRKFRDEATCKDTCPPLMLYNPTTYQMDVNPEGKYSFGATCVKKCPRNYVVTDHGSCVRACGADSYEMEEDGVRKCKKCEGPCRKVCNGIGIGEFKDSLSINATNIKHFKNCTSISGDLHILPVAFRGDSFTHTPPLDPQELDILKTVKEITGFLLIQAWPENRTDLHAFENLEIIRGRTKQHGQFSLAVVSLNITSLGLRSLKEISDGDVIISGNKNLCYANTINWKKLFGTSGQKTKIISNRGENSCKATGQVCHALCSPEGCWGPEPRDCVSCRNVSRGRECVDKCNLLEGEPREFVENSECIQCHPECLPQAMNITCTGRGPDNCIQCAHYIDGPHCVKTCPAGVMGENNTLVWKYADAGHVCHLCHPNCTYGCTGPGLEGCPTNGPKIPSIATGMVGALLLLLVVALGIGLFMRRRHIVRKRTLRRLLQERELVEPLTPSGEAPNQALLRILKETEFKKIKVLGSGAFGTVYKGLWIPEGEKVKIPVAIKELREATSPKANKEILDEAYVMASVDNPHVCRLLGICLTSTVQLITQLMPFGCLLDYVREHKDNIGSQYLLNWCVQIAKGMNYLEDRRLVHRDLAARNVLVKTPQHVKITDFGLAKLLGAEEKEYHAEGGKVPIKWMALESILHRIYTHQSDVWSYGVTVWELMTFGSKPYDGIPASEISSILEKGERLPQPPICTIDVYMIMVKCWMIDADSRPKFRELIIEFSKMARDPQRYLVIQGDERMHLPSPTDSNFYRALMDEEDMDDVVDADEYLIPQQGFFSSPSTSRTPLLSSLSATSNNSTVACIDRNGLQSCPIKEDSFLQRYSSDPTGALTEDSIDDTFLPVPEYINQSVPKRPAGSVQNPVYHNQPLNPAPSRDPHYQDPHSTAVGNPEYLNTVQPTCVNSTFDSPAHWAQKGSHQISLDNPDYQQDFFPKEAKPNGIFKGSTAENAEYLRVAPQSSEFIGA

Structure (SMILES): C=CC(=O)Nc1cc(C)cc(-n2c(=O)cc(C)c3cnc(Nc4ccc(N5CCN(C)CC5)cc4OC)nc32)c1 [YL143, N‐(3‐(2‐((2‐Methoxy‐4‐(4‐methylpiperazin‐1‐yl)phenyl)amino)‐5‐methyl‐7‐oxopyrido [2,3‐d]pyrimidin‐8(7H)‐yl)‐5‐methylphenyl)acrylamide]
- IC50 [1]: 185 ± 43.4 nM
- IC50 [2]: 49.1 ± 4.2 nM
- IC50 [3]: 81.5 ± 10.3 nM
- IC50 [4]: 7.8 ± 1.1 nM
- IC50 [5]: > 10000 nM
- IC50 [6]: > 10000 nM
- G0/G1 phase fraction ([7]; 300 nmol/L, 48 h): 82.11%
- cell cycle arrest and apoptosis ([7]; H1975 cells, 30 nmol/L): induces G0/G1 phase arrest and apoptosis
- BA (oral bioavailability) ([8]; P.O. 25 mg/Kg vs I.V. 5 mg/Kg): 24.95%
- T1/2 ([8]; P.O. 25 mg/Kg, 25 mg/kg): 6.13 h
- half-life ([8]; Sprague-Dawley, rat, plasma, iv, 5 mg/kg, I.V. 5 mg/Kg): 1.36 h
- AUC(0-inf) [8, 9]: 1880 ng·h/mL
- Cmax [8, 9]: 3270 ng/mL
- Tmax [8, 9]: 0.08 h
- bioavailability ([8]; Sprague-Dawley, rat, plasma, oral, 25 mg/kg, P.O. 25 mg/Kg vs I.V. 5 mg/Kg, read-out: BA (oral bioavailability)): 25%
- half-life ([8]; Sprague-Dawley, rat, plasma, po, 25 mg/kg, P.O. 25 mg/Kg): 6.1 h
- AUC(0-inf) [8, 10]: 2340 ng·h/mL
- Cmax [8, 10]: 160 ng/mL
- Tmax [8, 10]: 6.67 h
- Cmax ([8]; Sprague-Dawley, rat, plasma, single oral dosing 25 mg/kg): 297 nM
